# Source: the Biogen ADME set (Fang et al. 2023)
# Details: for aqueous solubility: pH 6.8
MDR1-MDCK efflux ratio,"fraction unbound, human plasma","fraction unbound, rat plasma","intrinsic clearance, human liver microsomes [mL/min/kg]","intrinsic clearance, rat liver microsomes [mL/min/kg]",aqueous solubility [µg/mL],Structure (SMILES)
50.6,0.0109,0.00726,26.8,344,,C=CC(=O)Nc1cccc(Oc2nc(Nc3ccc(N4CCN(C)CC4)c(F)c3)nc3[nH]ccc23)c1
28.9,,,40.9,674,,CCN(CC(N)=O)CC(=O)N1c2ccccc2CCc2ccccc21
2.41,,,52,771,24.1,C/C=C/CC(=O)N1CCC(c2cc(Cc3ccccc3)n[nH]2)CC1
0.497,,,,,0.21,O=C(Nc1nc(-c2cccnc2)cs1)C1CCCCC1
,,,,,56.1,CCc1cccc(NC(=O)COC(=O)c2cnc(C)cn2)c1
6.54,,,5.21,51.4,29.9,Cc1nnc(NCc2cccnc2)c2ccccc12
,,,47.2,1190,49.9,O=C(C1CC1c1ccccc1F)N1CCC(n2c(=O)[nH]c3ccccc32)CC1 (configuration not stated)
,,,12.2,53.6,9.14,CCOc1cccc(C(=O)Nc2ccc3c(c2)CCC(=O)N3C)c1
1.96,,,4.77,14.3,12.5,O=C(/C=C\n1cnc(-c2cc(C(F)(F)F)cc(C(F)(F)F)c2)n1)NNc1cnccn1
0.709,,,≤ 4.74,≤ 10.7,17.6,Cc1cc(C)n2ncc(C(=O)Nc3cccc(C(=O)O)c3)c2n1
78.1,,,≤ 4.74,634,52.3,O=C(Cn1c(=O)c2cccn2c2ccccc21)NCCCN1CCCC1
,,,≤ 4.74,≤ 10.7,79.1,NCCn1cc(NC(=O)c2ccccc2)cn1
0.543,,,8.16,192,8.8,O=C(NC1(c2ccccc2)CCC1)c1cc(C2CC2)on1
1.89,,,≤ 4.74,≤ 10.7,56.9,CC(C)(C)C(=O)N1CCC(NS(C)(=O)=O)CC1
0.871,,,2130,4230,25.6,CC(C(=O)N1CCc2sccc2C1)N1CCCN(c2ccccc2C#N)CC1 (configuration not stated)
19.9,,,51.5,616,,COc1ccc(OC)c(S(=O)(=O)NCCC(=O)Nc2ccccc2C)c1
12,,,26.5,445,,Fc1cc(Br)ccc1CNCc1ccccn1
0.632,,,≤ 4.74,38.7,49.2,CCS(=O)(=O)Cc1ccn(-c2cccc(F)c2)n1
,,,,,45.7,N#Cc1ccc(OCc2nnc(S)n2-c2ccccc2)cc1
0.861,,,48.5,600,,O=C(c1cc(-c2ccc(F)cc2)on1)N1CC[C@H](Oc2ccccc2F)[C@@H](O)CC1
,,,≤ 4.74,90.1,43.9,COc1ccc(C(=O)N2CCCC2)cc1NC(=O)c1cc(F)c(F)c(F)c1F

MDR1-MDCK efflux ratio,"fraction unbound, human plasma","fraction unbound, rat plasma","intrinsic clearance, human liver microsomes [mL/min/kg]","intrinsic clearance, rat liver microsomes [mL/min/kg]",aqueous solubility [µg/mL],Structure (SMILES)
0.969,,,≤ 4.74,≤ 10.7,,CCOc1cccc(NS(C)(=O)=O)n1
7.68,,,≤ 4.74,25,43.2,Cc1cc(NC(=O)CCc2cnn(C)c2)c2ccccc2n1
148,,,10.7,151,37,CCCCC1=NC2(CCCC2)C(=O)N1Cc1ccc(-c2ccccc2-c2nn[nH]n2)cc1
,,,≤ 4.74,≤ 10.7,,CCc1nsc(N2CCS(=O)(=O)CC2)n1
,,,≤ 4.74,≤ 10.7,25.7,Cc1nc2c(cnn2C(C)C)c(C)c1CCC(=O)O
86.8,0.0689,,79,2040,58.9,C=CC(=O)N(C)CCOc1c(N)ncnc1-c1cc(F)cc(NC(=O)c2ccc(C3CC3)cc2F)c1C
25.1,0.11,0.14,464,1250,,CN(C)C(=O)C1(Cc2ccccc2-c2ccccc2)CCN(C(=O)c2cnn(C)c2)CC1
17.7,,,≤ 4.74,18.4,45,Cc1nc(N(C)C)cc(C2(C)CCNCC2)n1
0.67,,,≤ 4.74,≤ 10.7,40.6,Cc1ccc(CNC(=O)c2cccnc2)n1C
,,,,,0.48,Cc1cccc2cc(C(N)=S)/c(=N/Nc3ccccc3)oc12
1.38,,,124,3140,,Cc1ccc(OC[C@@H](O)[C@H](C)NC(C)C)c2c1CCC2
,,,99.6,319,9.23,CCOc1ccc(Nc2ncccc2C#N)cc1
18.4,,,≤ 4.74,1140,,C[C@@H](c1ccccc1)N(C)C(=O)NCCN(C)CCO
0.734,,,89.2,1320,16.8,c1ccc(Cc2n[nH]c(CSc3ccccc3)n2)cc1
42.1,,,≤ 4.74,39.4,61.8,COc1ccc(-c2nc(C3CCN(C(=O)c4sc(C)nc4C)CC3)[nH]c2C(N)=O)cc1
0.485,,,16.8,134,2.96,Clc1cc2ncc(-n3ccnc3)nc2cc1Cl
2.19,,,≤ 4.74,48,23,CCn1ncnc1-c1[nH]cnc1-c1ccccc1
12.5,,,101,1270,,Cc1cccc(NC(=O)CN(C)Cc2nc3ccc(Cl)cc3c(=O)[nH]2)c1C
162,,,≤ 4.74,64.5,40.6,C[C@@H](C(=O)N1CCCC1)N1CCC(n2c(=O)[nH]c3ccccc32)CC1
,,,,,0.14,COc1ccc(Nc2nc3ccccc3c3nncn23)cc1
